pIC50: −log10 of the molar value.
Columns and labels:
Assay type in all cases: biochemical
LRRK2 G2019S = LRRK2 G2019S (Homo sapiens (Human), UniProt Q5S007, G2019S); experiment: LRRK2 G2019S Kinase Assay (Adapta); details: 100 μM ATP, LRRKtide substrate; read-out: LRRK2_G2019S IC50
Protocol: (§1) The LRRK2 and LRRK2 G2019S kinase assays were performed using the Adapta™ technology in ThermoFisher Scientific. This experiment was carried out according to the supplier's protocol. Briefly, assay conditions were as follows. The mixture of substrate (LRRKtide) and each kinase was prepared in 50 mM Tris pH 8.5, 0.01% BRIJ-35, 10 mM MgCl2, 1 mM EGTA, 0.02% NaN3. Assays were performed in the presence of 70 μM ATP and 100 μM ATP (KmATP) in LRRK2 and LRRK2 G2019S, respectively. The reaction was progressed at room temperature for 1 hour. Upon completion of kinase reaction, 5 μL of Detection Mix was added and after 60 min incubation time, the emission ratio of 665/615 nm was calculated.

[1] = molecular target: c-Abl (His-tagged recombinant human ABL1) (Homo sapiens (Human), UniProt P00519); experiment: c-abl Kinase Assay (ADP-Glo); details: ATP (25 μM), Abltide substrate
Protocol: ADP-Glo assay kit was purchased from Promega. Magnesium chloride (MgCl2), bovine serum albumin (BSA), ethylene glycol-bis(p-aminoethyl ether)-N,N,N′,N′-tetraacetic acid (EGTA), triton X-100, 1,4-dithiothreitol (DTT) and dimethyl sulfoxide (DMSO) were purchased from Sigma-Aldrich. HEPES buffer was purchased from Gibco. ABL1 kinase and Abltide were purchased from Signalchem.
c-Abl kinase activity was measured by Promega's ADP-Glo™ Assay. In this assay, His-tagged recombinant human ABL1 (0.25 ng/μl) is incubated with 5 μL of compounds (0.5% DMSO), 5 μL of Abltide (0.01 μg/μl) and 5 μL of ATP (25 μM) in buffer (50 mM HEPES, 7.5; 10 mM MgCl2; 1 mM EGTA; 0.05% BSA; 0.01% Triton X-100; 2 mM DTT). The assay was started by incubating the reaction mixture in a 96-well plate at 30° C. for 30-min. After the incubation, 25 μL ADP-Glo reagent was added and the reaction was incubated at room temperature for 40-min to stop the reaction and degrade residual ATP. The ADP product was then converted to ATP by adding 50 μL per well of detection reagent. Luminescence was detected after 30-min room temperature incubation with the Molecular device I3X plate reader. The IC50 values were calculated from a series of percent inhibition values determined at a range of inhibitor concentration using software routines as implemented in the GraphPad Prism 7 software and Sigma Plot 13.0.

LRRK2 (WT) = LRRK2 (WT) (Homo sapiens (Human), UniProt Q5S007); experiment: LRRK2 Kinase Assay (Adapta); details: 70 μM ATP, LRRKtide substrate
Protocol: as §1

Chain of c-Abl (His-tagged recombinant human ABL1) (P00519 whole entry): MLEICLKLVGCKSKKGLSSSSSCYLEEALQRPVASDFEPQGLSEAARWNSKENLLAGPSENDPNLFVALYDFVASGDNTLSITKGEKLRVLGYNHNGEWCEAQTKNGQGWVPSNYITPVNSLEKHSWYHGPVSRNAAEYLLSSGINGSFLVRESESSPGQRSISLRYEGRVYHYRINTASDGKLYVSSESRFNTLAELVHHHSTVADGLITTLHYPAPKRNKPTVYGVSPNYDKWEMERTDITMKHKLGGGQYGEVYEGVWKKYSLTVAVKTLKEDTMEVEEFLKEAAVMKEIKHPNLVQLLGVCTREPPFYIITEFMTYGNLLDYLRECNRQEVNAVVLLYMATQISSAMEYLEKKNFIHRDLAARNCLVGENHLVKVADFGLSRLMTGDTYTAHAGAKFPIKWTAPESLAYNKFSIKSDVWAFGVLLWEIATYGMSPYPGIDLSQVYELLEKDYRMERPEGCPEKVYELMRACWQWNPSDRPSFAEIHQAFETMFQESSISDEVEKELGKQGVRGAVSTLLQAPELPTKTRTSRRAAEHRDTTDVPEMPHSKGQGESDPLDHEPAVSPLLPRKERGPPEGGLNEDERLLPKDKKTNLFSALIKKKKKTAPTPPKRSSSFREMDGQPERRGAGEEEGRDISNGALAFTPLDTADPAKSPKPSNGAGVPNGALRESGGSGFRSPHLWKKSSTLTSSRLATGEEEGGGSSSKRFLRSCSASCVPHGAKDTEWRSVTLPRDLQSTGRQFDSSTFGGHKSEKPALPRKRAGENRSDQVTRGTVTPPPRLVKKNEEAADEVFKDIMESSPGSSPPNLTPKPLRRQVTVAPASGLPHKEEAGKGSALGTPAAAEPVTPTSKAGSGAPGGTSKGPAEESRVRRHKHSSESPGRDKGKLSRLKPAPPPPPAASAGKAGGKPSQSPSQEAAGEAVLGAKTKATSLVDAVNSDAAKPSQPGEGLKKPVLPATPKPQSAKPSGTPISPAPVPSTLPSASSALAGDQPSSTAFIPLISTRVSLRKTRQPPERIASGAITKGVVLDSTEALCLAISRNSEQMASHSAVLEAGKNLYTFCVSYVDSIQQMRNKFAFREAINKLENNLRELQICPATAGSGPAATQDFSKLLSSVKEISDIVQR
Chain of LRRK2 (WT) (Q5S007 whole entry): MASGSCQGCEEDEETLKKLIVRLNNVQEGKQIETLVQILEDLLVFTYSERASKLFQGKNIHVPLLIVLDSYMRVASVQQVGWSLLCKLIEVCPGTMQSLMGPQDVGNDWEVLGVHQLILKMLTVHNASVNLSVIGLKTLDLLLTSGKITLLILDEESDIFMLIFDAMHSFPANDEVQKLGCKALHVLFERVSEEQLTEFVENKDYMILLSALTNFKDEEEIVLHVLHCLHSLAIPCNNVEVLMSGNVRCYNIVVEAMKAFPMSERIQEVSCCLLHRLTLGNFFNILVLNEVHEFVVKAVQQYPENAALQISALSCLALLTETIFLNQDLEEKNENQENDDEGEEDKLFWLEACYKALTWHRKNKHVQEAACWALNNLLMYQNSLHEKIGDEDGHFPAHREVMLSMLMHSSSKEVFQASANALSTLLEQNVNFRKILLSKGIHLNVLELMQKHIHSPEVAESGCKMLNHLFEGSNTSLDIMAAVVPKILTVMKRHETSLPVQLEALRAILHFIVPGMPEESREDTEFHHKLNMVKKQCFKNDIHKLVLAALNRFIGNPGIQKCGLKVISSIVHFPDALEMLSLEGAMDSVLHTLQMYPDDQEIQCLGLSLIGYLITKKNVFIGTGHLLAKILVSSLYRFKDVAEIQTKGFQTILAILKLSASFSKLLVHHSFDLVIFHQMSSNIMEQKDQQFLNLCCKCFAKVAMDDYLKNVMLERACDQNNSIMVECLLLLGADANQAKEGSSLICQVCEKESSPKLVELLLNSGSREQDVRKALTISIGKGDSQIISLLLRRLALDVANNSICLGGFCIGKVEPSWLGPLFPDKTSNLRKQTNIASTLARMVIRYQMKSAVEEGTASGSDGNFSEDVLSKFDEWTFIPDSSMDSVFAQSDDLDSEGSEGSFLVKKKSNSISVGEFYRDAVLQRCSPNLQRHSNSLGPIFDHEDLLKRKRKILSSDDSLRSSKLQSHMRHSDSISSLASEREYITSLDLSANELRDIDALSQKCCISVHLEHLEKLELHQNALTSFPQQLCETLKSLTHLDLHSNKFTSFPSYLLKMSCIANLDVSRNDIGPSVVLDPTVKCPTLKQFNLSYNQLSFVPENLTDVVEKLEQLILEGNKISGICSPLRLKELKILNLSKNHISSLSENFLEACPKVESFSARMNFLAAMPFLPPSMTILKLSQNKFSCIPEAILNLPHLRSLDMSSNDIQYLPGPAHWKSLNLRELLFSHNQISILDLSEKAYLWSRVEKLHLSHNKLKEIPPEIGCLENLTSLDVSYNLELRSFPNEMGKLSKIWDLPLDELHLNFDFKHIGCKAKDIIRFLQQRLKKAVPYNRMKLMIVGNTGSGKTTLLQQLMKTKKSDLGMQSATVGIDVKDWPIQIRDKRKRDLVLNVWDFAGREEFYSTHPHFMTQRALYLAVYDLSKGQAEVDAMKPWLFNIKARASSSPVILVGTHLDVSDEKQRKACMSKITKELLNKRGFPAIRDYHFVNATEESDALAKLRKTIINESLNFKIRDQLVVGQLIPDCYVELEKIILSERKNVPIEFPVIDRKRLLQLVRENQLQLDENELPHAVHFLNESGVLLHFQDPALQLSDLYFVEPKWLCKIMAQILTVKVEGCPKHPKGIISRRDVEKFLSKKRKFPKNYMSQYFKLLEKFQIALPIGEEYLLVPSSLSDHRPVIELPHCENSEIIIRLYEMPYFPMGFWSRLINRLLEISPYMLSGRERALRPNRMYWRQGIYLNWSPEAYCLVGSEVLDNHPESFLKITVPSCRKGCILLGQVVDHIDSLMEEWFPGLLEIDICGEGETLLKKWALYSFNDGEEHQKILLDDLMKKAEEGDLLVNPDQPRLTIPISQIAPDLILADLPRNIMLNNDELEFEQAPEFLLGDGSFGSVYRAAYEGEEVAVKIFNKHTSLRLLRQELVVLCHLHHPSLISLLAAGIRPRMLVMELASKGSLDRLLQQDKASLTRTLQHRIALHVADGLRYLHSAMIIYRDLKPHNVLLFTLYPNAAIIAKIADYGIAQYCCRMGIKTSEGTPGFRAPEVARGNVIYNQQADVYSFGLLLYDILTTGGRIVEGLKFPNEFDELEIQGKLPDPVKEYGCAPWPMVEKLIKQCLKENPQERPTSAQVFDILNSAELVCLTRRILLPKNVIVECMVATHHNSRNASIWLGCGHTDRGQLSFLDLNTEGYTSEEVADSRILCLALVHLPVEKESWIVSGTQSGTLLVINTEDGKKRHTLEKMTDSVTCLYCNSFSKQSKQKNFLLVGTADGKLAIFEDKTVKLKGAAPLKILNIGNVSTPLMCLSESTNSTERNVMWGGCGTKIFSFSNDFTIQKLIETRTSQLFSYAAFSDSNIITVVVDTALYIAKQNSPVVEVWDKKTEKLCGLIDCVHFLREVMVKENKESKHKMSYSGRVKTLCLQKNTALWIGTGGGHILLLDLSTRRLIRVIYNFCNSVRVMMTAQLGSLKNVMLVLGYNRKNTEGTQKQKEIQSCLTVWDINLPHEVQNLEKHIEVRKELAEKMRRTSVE
Chain of LRRK2 G2019S (Q5S007 whole entry G2019S): as the sequence (Q5S007 whole entry) above, with G2019S counted along it

Cc1cccc(F)c1-c1ccc2nc(NC(=O)[C@@H]3C[C@@H]3F)c(Cl)n2c1 [Example 4, (1S,2S)—N-(3-chloro-6-(2-fluoro-6-methylphenyl)imidazo[1,2-a]pyridin-2-yl)-2-fluorocyclopropane-1-carboxamide]
pIC50 (LRRK2 G2019S): 6.00 to 7.00 | pIC50 [1]: 7.00 to 8.00 | pIC50 (LRRK2 (WT)): < 6.00

Cc1ccncc1-c1ccc2nc(NC(=O)[C@@H]3C[C@@H]3F)c(C)n2c1 [Example 5, (1S,2S)-2-fluoro-N-(3-methyl-6-(4-methylpyridin-3-yl)imidazo[1,2-a]pyridin-2-yl)cyclopropane-1-carboxamide]
pIC50 (LRRK2 G2019S): < 6.00 | pIC50 [1]: 6.00 to 7.00 | pIC50 (LRRK2 (WT)): < 6.00

Cc1ccncc1-c1ccc2nc(NC(=O)[C@@H]3C[C@@H]3F)cn2c1 [Example 6, (1S,2S)-2-fluoro-N-(6-(4-methylpyridin-3-yl)imidazo[1,2-a]pyridin-2-yl)cyclopropane-1-carboxamide]
pIC50 (LRRK2 G2019S): 6.00 to 7.00 | pIC50 [1]: 7.00 to 8.00 | pIC50 (LRRK2 (WT)): 6.00 to 7.00

Cc1ccncc1-c1ccc2nc(NC(=O)[C@@H]3C[C@@H]3F)c(Cl)n2c1 [Example 7, (1S,2S)—N-(3-chloro-6-(4-methylpyridin-3-yl)imidazo[1,2-a]pyridin-2-yl)-2-fluorocyclopropane-1-carboxamide]
pIC50 (LRRK2 G2019S): < 6.00 | pIC50 [1]: 6.00 to 7.00 | pIC50 (LRRK2 (WT)): < 6.00

Cc1c(F)cccc1-c1ccc2nc(NC(=O)[C@@H]3C[C@@H]3F)c(C)n2c1 [Example 8, (1S,2S)-2-fluoro-N-(6-(3-fluoro-2-methylphenyl)-3-methylimidazo[1,2-a]pyridin-2-yl)cyclopropane-1-carboxamide]
pIC50 (LRRK2 G2019S): 6.00 to 7.00 | pIC50 [1]: 7.00 to 8.00 | pIC50 (LRRK2 (WT)): 6.00 to 7.00

Cc1cccc(F)c1-c1ccc2nc(NC(=O)[C@@H]3C[C@@H]3F)c(C)n2c1 [Example 9, (1S,2S)-2-fluoro-N-(6-(2-fluoro-6-methylphenyl)-3-methylimidazo[1,2-a]pyridin-2-yl)cyclopropane-1-carboxamide]
pIC50 (LRRK2 G2019S): 6.00 to 7.00 | pIC50 [1]: 7.00 to 8.00 | pIC50 (LRRK2 (WT)): 6.00 to 7.00

Cc1c(F)cncc1-c1ccc2nc(NC(=O)[C@@H]3C[C@@H]3F)c(C)n2c1 [Example 10, (1S,2S)-2-fluoro-N-(6-(5-fluoro-4-methylpyridin-3-yl)-3-methylimidazo[1,2-a]pyridin-2-yl)cyclopropane-1-carboxamide]
pIC50 (LRRK2 G2019S): < 6.00 | pIC50 [1]: 6.00 to 7.00 | pIC50 (LRRK2 (WT)): < 6.00

Cc1ccc(F)cc1-c1ccc2nc(NC(=O)[C@@H]3C[C@@H]3F)cn2c1 [Example 11, (1S,2S)-2-fluoro-N-(6-(5-fluoro-2-methylphenyl)imidazo[1,2-a]pyridin-2-yl)cyclopropane-1-carboxamide]
pIC50 (LRRK2 G2019S): 7.00 to 8.00 | pIC50 [1]: > 8.00 | pIC50 (LRRK2 (WT)): 7.00 to 8.00

Cc1ccc(O)cc1-c1ccc2nc(NC(=O)[C@@H]3C[C@@H]3F)cn2c1 [Example 12, (1S,2S)-2-fluoro-N-(6-(5-hydroxy-2-methylphenyl)imidazo[1,2-a]pyridin-2-yl)cyclopropane-1-carboxamide]
pIC50 (LRRK2 G2019S): 7.00 to 8.00 | pIC50 [1]: > 8.00 | pIC50 (LRRK2 (WT)): 7.00 to 8.00

COC(=O)c1ccc(C)c(-c2ccc3nc(NC(=O)[C@@H]4C[C@@H]4F)cn3c2)c1 [Example 13, methyl 3-(2-((1S,2S)-2-fluorocyclopropane-1-carboxamido)imidazo[1,2-a]pyridin-6-yl)-4-methylbenzoate]
pIC50 (LRRK2 G2019S): < 6.00 | pIC50 [1]: > 8.00 | pIC50 (LRRK2 (WT)): < 6.00

Cc1c(F)cncc1-c1ccc2nc(NC(=O)[C@@H]3C[C@@H]3F)cn2c1 [Example 14, (1S,2S)-2-fluoro-N-(6-(5-fluoro-4-methylpyridin-3-yl)imidazo[1,2-a]pyridin-2-yl)cyclopropane-1-carboxamide]
pIC50 (LRRK2 G2019S): 6.00 to 7.00 | pIC50 [1]: > 8.00 | pIC50 (LRRK2 (WT)): 6.00 to 7.00

Cc1ccc2[nH]ccc2c1-c1ccc2nc(NC(=O)[C@@H]3C[C@@H]3F)cn2c1 [Example 15, (1S,2S)-2-fluoro-N-(6-(5-methyl-1H-indol-4-yl)imidazo[1,2-a]pyridin-2-yl)cyclopropane-1-carboxamide]
pIC50 (LRRK2 G2019S): > 8.00 | pIC50 [1]: > 8.00 | pIC50 (LRRK2 (WT)): > 8.00

Cc1c(F)cncc1-c1ccc2nc(NC(=O)[C@@H]3C[C@@H]3F)c(Cl)n2c1 [Example 16, (1S,2S)—N-(3-chloro-6-(5-fluoro-4-methylpyridin-3-yl)imidazo[1,2-a]pyridin-2-yl)-2-fluorocyclopropane-1-carboxamide]
pIC50 (LRRK2 G2019S): < 6.00 | pIC50 [1]: 6.00 to 7.00 | pIC50 (LRRK2 (WT)): < 6.00

Cc1ccc(C#N)cc1-c1ccc2nc(NC(=O)[C@@H]3C[C@@H]3F)cn2c1 [Example 17, (1S,2S)—N-(6-(5-cyano-2-methylphenyl)imidazo[1,2-a]pyridin-2-yl)-2-fluorocyclopropane-1-carboxamide]
pIC50 (LRRK2 G2019S): 6.00 to 7.00 | pIC50 [1]: > 8.00 | pIC50 (LRRK2 (WT)): 6.00 to 7.00

O=C(Nc1cn2cc(-c3cc[nH]n3)ccc2n1)[C@@H]1C[C@@H]1F [Example 18, (1S,2S)—N-(6-(1H-pyrazol-3-yl)imidazo[1,2-a]pyridin-2-yl)-2-fluorocyclopropane-1-carboxamide]
pIC50 (LRRK2 G2019S): 6.00 to 7.00 | pIC50 [1]: 6.00 to 7.00 | pIC50 (LRRK2 (WT)): 6.00 to 7.00

Cc1c[nH]nc1-c1ccc2nc(NC(=O)[C@@H]3C[C@@H]3F)cn2c1 [Example 19, (1S,2S)-2-fluoro-N-(6-(4-methyl-1H-pyrazol-3-yl)imidazo[1,2-a]pyridin-2-yl)cyclopropane-1-carboxamide]
pIC50 (LRRK2 G2019S): 6.00 to 7.00 | pIC50 [1]: 7.00 to 8.00 | pIC50 (LRRK2 (WT)): 6.00 to 7.00

Cc1c(O)cccc1-c1ccc2nc(NC(=O)[C@@H]3C[C@@H]3F)cn2c1 [Example 20, (1S,2S)-2-fluoro-N-(6-(3-hydroxy-2-methylphenyl)imidazo[1,2-a]pyridin-2-yl)cyclopropane-1-carboxamide]
pIC50 (LRRK2 G2019S): 7.00 to 8.00 | pIC50 [1]: > 8.00 | pIC50 (LRRK2 (WT)): > 8.00

O=C(Nc1cn2cc(-c3cnccc3Cl)ccc2n1)[C@@H]1C[C@@H]1F [Example 21, (1S,2S)—N-(6-(4-chloropyridin-3-yl)imidazo[1,2-a]pyridin-2-yl)-2-fluorocyclopropane-1-carboxamide]
pIC50 (LRRK2 G2019S): 6.00 to 7.00 | pIC50 [1]: 7.00 to 8.00 | pIC50 (LRRK2 (WT)): 6.00 to 7.00

Cc1cccc(-c2ccc3nc(NC(=O)[C@@H]4C[C@@H]4F)cn3c2)c1C [Example 22, (1S,2S)—N-(6-(2,3-dimethylphenyl)imidazo[1,2-a]pyridin-2-yl)-2-fluorocyclopropane-1-carboxamide]
pIC50 (LRRK2 G2019S): 6.00 to 7.00 | pIC50 [1]: > 8.00 | pIC50 (LRRK2 (WT)): 6.00 to 7.00

Cc1ccc(N)cc1-c1ccc2nc(NC(=O)[C@@H]3C[C@@H]3F)cn2c1 [Example 23, (1S,2S)—N-(6-(5-amino-2-methylphenyl)imidazo[1,2-a]pyridin-2-yl)-2-fluorocyclopropane-1-carboxamide]
pIC50 (LRRK2 G2019S): 7.00 to 8.00 | pIC50 [1]: > 8.00 | pIC50 (LRRK2 (WT)): 6.00 to 7.00

CNc1ccc(C)c(-c2ccc3nc(NC(=O)[C@@H]4C[C@@H]4F)cn3c2)c1 [Example 24, (1S,2S)-2-fluoro-N-(6-(2-methyl-5-(methylamino)phenyl)imidazo[1,2-a]pyridin-2-yl)cyclopropane-1-carboxamide]
pIC50 (LRRK2 G2019S): 7.00 to 8.00 | pIC50 [1]: > 8.00 | pIC50 (LRRK2 (WT)): 6.00 to 7.00

CC(=O)Nc1ccc(C)c(-c2ccc3nc(NC(=O)[C@@H]4C[C@@H]4F)cn3c2)c1 [Example 25, (1S,2S)—N-(6-(5-acetamido-2-methylphenyl)imidazo[1,2-a]pyridin-2-yl)-2-fluorocyclopropane-1-carboxamide]
pIC50 (LRRK2 G2019S): 6.00 to 7.00 | pIC50 [1]: 7.00 to 8.00 | pIC50 (LRRK2 (WT)): < 6.00

Source: patent publication US11098044B2, “Imidazopyridinyl compounds and use thereof for treatment of neurodegenerative disorders” (1ST Biotherapeutics, Inc., priority 2019, dated 2021)
